Data from US9085555B2, “Complement pathway modulators and uses thereof” (priority 2011, dated 2015).
Where a name gives a salt, the structure may show the parent alone.

Target: Factor D (Homo sapiens (Human), UniProt P00746)
Assay: biochemical
Type: biochemical
Details: read-out: IC50

Factor D, sequence (P00746 26-253): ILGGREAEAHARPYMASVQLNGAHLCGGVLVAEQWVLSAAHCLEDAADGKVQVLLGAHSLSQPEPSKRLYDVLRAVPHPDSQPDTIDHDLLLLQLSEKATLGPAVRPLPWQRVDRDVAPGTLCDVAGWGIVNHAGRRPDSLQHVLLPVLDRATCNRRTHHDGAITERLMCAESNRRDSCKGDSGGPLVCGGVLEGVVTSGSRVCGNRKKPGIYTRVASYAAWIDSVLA

Structure (SMILES)	IC50 [nM]
NC(=O)n1cc(NC(=O)N2CCS[C@H]2C(=O)N[C@H](CO)c2cccc(Cl)c2F)c2ccccc21 [Example 253, (S)-Thiazolidine-2,3-dicarboxylic acid 3-[(1-carbamoyl-1H-indol-3-yl)-amide] 2-{[(S)-1-(3-chloro-2-fluoro-phenyl)-2-hydroxy-ethyl]-amide}]	1070
Cc1cccnc1-c1cccc(NC(=O)[C@@H]2C[C@H]3C[C@H]3N2C(=O)Cn2nc(C(N)=O)c3ccncc32)c1F [Example 687, 1-(2-{(1R,3S,5R)-3-[2-Fluoro-3-(3-methyl-pyridin-2-yl)-phenylcarbamoyl]-2-aza-bicyclo[3.1.0]hex-2-yl}-2-oxo-ethyl)-1H-pyrazolo[3,4-c] pyridine-3-carboxylic acid amide]	98
NC[C@@H]1C[C@@H](C(=O)Nc2cccc(OC(F)(F)F)c2)N(C(=O)Nc2cn(C(N)=O)c3ccccc23)C1 [Example 404, (2S,4S)-4-Aminomethyl-pyrrolidine-1,2-dicarboxylic acid 1-[(1-carbamoyl-1H-indol-3-yl)-amide]2-[(3-trifluoromethoxy-phenyl)-amide]]	1000
COc1ccc(F)c(F)c1CNC(=O)[C@@H]1SCCN1C(=O)Nc1cn(C(N)=O)c2ccccc12 [Example 262, (S)-Thiazolidine-2,3-dicarboxylic acid 3-[(1-carbamoyl-1H-indol-3-yl)-amide] 2-(2,3-difluoro-6-methoxy-benzylamide)]	200
NC(=O)n1cc(NC(=O)N2CC3(CC3)C[C@H]2C(=O)NCc2cccc(Cl)c2)c2ccccc21 [Example 180, (S)-5-Aza-spiro[2.4]heptane-5,6-dicarboxylic acid 5-[(1-carbamoyl-1H-indol-3-yl)-amide] 6-(3-chloro-benzylamide)]	650
NC(=O)n1cc(NC(=O)N2C[C@@H](N)C[C@H]2C(=O)NCc2cccc(O)c2)c2ccccc21 [Example 35, (2S,4S)-4-Amino-pyrrolidine-1,2-dicarboxylic acid 1-[(1-carbamoyl-1H-indol-3-yl)-amide] 2-(3-hydroxy-benzylamide)]	2850
CN(C)CCOc1ccc2c(c1)c(NC(=O)N1[C@@H]3C[C@@H]3C[C@H]1C(=O)NCc1cccc(Cl)c1F)cn2C(N)=O [Example 387, 1R,3S,5R)-2-Aza-bicyclo[3.1.0]hexane-2,3-dicarboxylic acid 2-{[1-carbamoyl-5-(2-dimethylamino-ethoxy)-1H-indol-3-yl]-amide}3-(3-chloro-2-fluoro-benzylamide]	57
NC(=O)n1cc(NC(=O)N2C[C@H](F)C[C@H]2C(=O)NCc2ccc(Cl)s2)c2ccccc21 [Example 11, (2S,4R)-4-Fluoro-pyrrolidine-1,2-dicarboxylic acid 1-[(1-carbamoyl-1H-indol-3-yl)-amide] 2-[(5-chloro-thiophen-2-ylmethyl)-amide]]	7
NC(=O)n1cc(CC(=O)N2C[C@H](F)[C@@H](N)[C@H]2C(=O)NCc2cccc(Cl)c2F)c2ccccc21 [Example 466, 3-{2-[(2S,3S,4S)-3-Amino-2-(3-chloro-2-fluoro-benzylcarbamoyl)-4-fluoro-pyrrolidin-1-yl]-2-oxo-ethyl}-indole-1-carboxylic acid amide]	43
NC(=O)n1cc(NC(=O)N2C[C@H](N)[C@@H](O)[C@H]2C(=O)NCc2cccc(Cl)c2F)c2ccccc21 [Example 416, 2S,3R,4S)-4-Amino-3-hydroxy-pyrrolidine-1,2-dicarboxylic acid 1-[(1-carbamoyl-1H-indol-3-yl)-amide]2-(3-chloro-2-fluoro-benzylamide]	315
N#Cc1ccc(-c2cccc(NC(=O)[C@@H]3CCCN3C(=O)Nc3cn(C(N)=O)c4ccccc34)c2)cc1 [Example 152, (S)-pyrrolidine-1,2-dicarboxylic acid 1-[(1-carbamoyl-1H-indol-3-yl)amide]2-[(4′-cyano-biphenyl-3-yl)-amide]]	4400
NC(=O)n1cc(NC(=O)N2C[C@H]3C[C@H]3[C@H]2C(=O)Nc2cccc(Br)n2)c2ccccc21 [Example 763, (1R,2S,5S)-3-Aza-bicyclo[3.1.0]hexane-2,3-dicarboxylic acid 2-[(6-bromo-pyridin-2-yl)-amide]3-[(1-carbamoyl-1H-indol-3-yl)-amide]]	14
NC(=O)c1nn(CC(=O)N2[C@@H]3C[C@@H]3C[C@H]2C(=O)Nc2cccc(C(F)(F)F)n2)c2cnccc12 [Example 732, 1-{2-Oxo-2-[(1R,3S,5R)-3-(6-trifluoromethyl-pyridin-2-ylcarbamoyl)-2-aza-bicyclo [3.1.0]hex-2-yl]-ethyl}-1H-pyrazolo[3,4-c]pyridine-3-carboxylic acid amide]	44
NC(=O)n1cc(NC(=O)N2CC[C@H](O)[C@H]2C(=O)NCc2cccc(Cl)c2)c2ccccc21 [Example 257, (2S,3S)-3-Hydroxy-pyrrolidine-1,2-dicarboxylic acid 1-[(1-carbamoyl-1H-indol-3-yl)-amide] 2-(3-chloro-benzylamide)]	3950
CC(C)(C)c1csc(NC(=O)[C@@H]2CCCN2C(=O)Nc2cn(C(N)=O)c3ccccc23)n1 [Example 160, (S)-Pyrrolidine-1,2-dicarboxylic acid 2-[(4-tert-butyl-thiazol-2-yl)-amide] 1-[(1-carbamoyl-1H-indol-3-yl)-amide]]	1400
NC(=O)n1cc(NC(=O)N2[C@@H](CO)CC[C@H]2C(=O)Nc2cccc(OC(F)(F)F)c2)c2ccccc21 [Example 360, (2S,5R)-5-Hydroxymethyl-pyrrolidine-1,2-dicarboxylic acid 1-[(1-carbamoyl-1H-indol-3-yl)-amide]2-[(3-trifluoromethoxy-phenyl)-amide]]	1000
COC(=O)c1ccc(NC(=O)[C@@H]2C[C@@H](F)CN2C(=O)Nc2cn(C(N)=O)c3ccccc23)cc1Br [Example 156, 2-Bromo-4-{[(2S,4R)-1-(1-carbamoyl-1H-indol-3-ylcarbamoyl)-4-fluoro-pyrrolidine-2-carbonyl]-amino}-benzoic acid methyl ester]	150
COC(=O)C(CCC(F)(F)F)NC(=O)[C@@H]1C[C@H]2C[C@H]2N1C(=O)Cn1nc(C(C)=O)c2cccnc21 (stereo partly drawn) [Example 767, 2-({(1R,3S,5R)-2-[2-(3-Acetyl-pyrazolo[3,4-b]pyridin-1-yl)-acetyl]-2-aza-bicyclo[3.1.0]hexane-3-carbonyl}-amino)-5,5,5-trifluoro-pentanoic acid methyl ester]	346
COc1ccc(CNC(=O)[C@@H]2SCCN2C(=O)Nc2cn(C(N)=O)c3ccccc23)c(F)c1F [Example 225, (S)-Thiazolidine-2,3-dicarboxylic acid 3-[(1-carbamoyl-1H-indol-3-yl)-amide] 2-(2,3-difluoro-4-methoxy-benzylamide)]	350
NC(=O)n1cc(NC(=O)N2N=CC[C@H]2C(=O)NCc2cccc(Cl)c2F)c2ccccc21 (single isomer, unassigned) [Example 362, S^§)-4,5-Dihydro-pyrazole-1,5-dicarboxylic acid 1-[(1-carbamoyl-1H-indol-3-yl)-amide]5-(3-chloro-2-fluoro-benzylamide]	5
NC(=O)c1nn(CC(=O)N2CCS[C@H]2C(=O)NCc2cccc(Cl)c2F)c2cnccc12 [Example 657, 1-{2-[(S)-2-(3-Chloro-2-fluoro-benzylcarbamoyl)-thiazolidin-3-yl]-2-oxo-ethyl}-1H-pyrazolo[3,4-c]pyridine-3-carboxylic acid amide]	78
COc1cc(NC(=O)[C@@H]2C[C@@H](F)CN2C(=O)Nc2cn(C(N)=O)c3ccccc23)ccn1 [Example 309, (2S,4R)-4-Fluoro-pyrrolidine-1,2-dicarboxylic acid 1-[(1-carbamoyl-1H-indol-3-yl)-amide] 2-[(2-methoxy-pyridin-4-yl)-amide]]	550
CC(=O)c1nn(CC(=O)N2C[C@H](F)[C@@H](O)[C@H]2C(=O)NC2(c3cccc(Cl)c3F)CC2)c2cnccc12 [Example 635, (2S,3S,4S)-1-[2-(3-Acetyl-pyrazolo[3,4-c]pyridin-1-yl)-acetyl]-4-fluoro-3-hydroxy-pyrrolidine-2-carboxylic acid [1-(3-chloro-2-fluoro-phenyl)-cyclopropyl]-amide formate]	18
NC(=O)n1cc(CC(=O)N2[C@H](C(=O)NCc3cccc(Cl)c3F)C[C@@]3(CO)C[C@@H]23)c2ccccc21 [Example 467, 3-{2-[(1R,3S,5S)-3-(3-Chloro-2-fluoro-benzylcarbamoyl)-5-hydroxymethyl-2-aza-bicyclo[3.1.0]hex-2-yl]-2-oxo-ethyl}-indole-1-carboxylic acid amide]	47
CO[C@H]1[C@@H](C(=O)N[C@H](C)c2cccc(Cl)c2F)N(C(=O)Cn2nc(C(N)=O)c3cnccc32)C[C@@H]1F [Example 665, 1-(2-{(2S,3S,4S)-2-[(R)-1-(3-Chloro-2-fluoro-phenyl)-ethylcarbamoyl]-4-fluoro-3-methoxy-pyrrolidin-1-yl}-2-oxo-ethyl)-1H-pyrazolo[4,3-c]pyridine-3-carboxylic acid amide]	58
NC(=O)c1nn(CC(=O)N2[C@@H]3C[C@@H]3C[C@H]2C(=O)Nc2cccc(OC(F)F)c2F)c2cnccc12 [Example 730, 1-{2-[(1R,3S,5R)-3-(3-Difluoromethoxy-2-fluoro-phenylcarbamoyl)-2-aza-bicyclo[3.1.0]hex-2-yl]-2-oxo-ethyl}-1H-pyrazolo[3,4-c] pyridine-3-carboxylic acid amide]	143
CC(C)c1cccc(NC(=O)[C@@H]2C[C@H]3C[C@H]3N2C(=O)Nc2cn(C(N)=O)c3ccccc23)c1 [Example 285, (1R,3S,5R)-2-Aza-bicyclo[3.1.0]hexane-2,3-dicarboxylic acid 2-[(1-carbamoyl-1H-indol-3-yl)-amide] 3-[(3-isopropyl-phenyl)-amide]]	55
C[C@@]1(F)C[C@@H](C(=O)NCc2cccc(Cl)c2F)N(C(=O)Nc2cn(C(N)=O)c3ccccc23)C1 [Example 205, (2S,4R)-4-Fluoro-4-methyl-pyrrolidine-1,2-dicarboxylic acid 1-[(1-carbamoyl-1H-indol-3-yl)-amide] 2-(3-chloro-2-fluoro-benzylamide)]	14
NC(=O)n1cc(NC(=O)N2C[C@@H](CO)C[C@H]2C(=O)NCc2c(F)ccc(Cl)c2F)c2ccccc21 [Example 436, 2S,4S)-4-Hydroxymethyl-pyrrolidine-1,2-dicarboxylic acid 1-[(1-carbamoyl-1H-indol-3-yl)-amide]2-(3-chloro-2,6-difluoro-benzylamide]	150
